The record followed here is US11793841B2, “Microbial compositions and methods for treating type 2 diabetes, obesity, and metabolic syndrome” (Solarea Bio, Inc., priority 2017, dated 2023).

For this assay, the system named is diet induced obese (DIO) C57BL/6J mice. Nature of the assay: Oral glucose tolerance test (OGTT) in diet induced obese mice. The following applies: monotherapy; by 60 minutes. The format is in vivo. As to the method: After 4 weeks of dosing mice with test article, an OGTT was performed. Here, mice were fasted for 6 hours after which fasting blood glucose levels were measured via tail vein blood using a glucometer (One-Touch Ultra II). Mice were then dosed with an oral glucose bolus (2 g/kg) via oral gavage, and blood glucose was measured at 20, 40, 60, and 120 minutes post gavage.

Turning to `CN(C)C(=N)N=C(N)N` [metformin], the “blood glucose after glucose challenge” value is “remained elevated”.
